The values that follow come from article PMC8041284, “Tunable Methacrylamides for Covalent Ligand Directed Release Chemistry” (Journal of the American Chemical Society, 2021).

Broadly, the inhibition is the change of the read-out against control, counted positive when it falls.

Where a SMILES comes first, the peptide text is derived from it. The star is where a group is joined. Cbz = O=C(OCc1ccccc1)*

The target of one test is BTK (Homo sapiens, UniProt Q06187). As to the kind of experiment: biochemical. The following applies: read-out: BTK inhibition (%).
Chain of BTK (Q06187 402-655 limits assumed): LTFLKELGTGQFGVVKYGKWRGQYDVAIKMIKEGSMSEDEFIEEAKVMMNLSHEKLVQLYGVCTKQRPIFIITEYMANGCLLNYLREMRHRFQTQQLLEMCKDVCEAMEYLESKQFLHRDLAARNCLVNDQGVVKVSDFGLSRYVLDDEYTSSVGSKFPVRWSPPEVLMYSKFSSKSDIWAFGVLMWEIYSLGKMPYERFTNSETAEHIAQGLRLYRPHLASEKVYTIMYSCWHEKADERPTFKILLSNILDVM
For `O=C(NCC1CCOCC1)c1cnc(Nc2ccc(Cl)cc2Cl)nc1C(F)(F)F` [PCM-0095345], the inhibition at 10 µM is -9.3%. Still for that read-out and setting: with `Cl[Te]1(Cl)(Cl)OCCO1` [PCM-0215721] the figure was 98.6%; with `C=C1CC[C@H]2[C@@H](/C=C(\C)C(=O)[C@@]3(OC(C)=O)C[C@H](C)[C@H](OC(=O)c4ccccc4)[C@@H]3[C@H]1OC(C)=O)C2(C)C` [PCM-0216520], -20.1%.

Still in this test, the particulars now being: read-out: BTK inhibition (%), 0.75 uM BTK, […] probe 3l, 15 min preincubation.
On to `COc1ccc(-c2oc3c(CC=C(C)C)c(O)cc(O)c3c(=O)c2O)cc1` [PCM-0216376], for which the inhibition at 10 µM was 3.9%.

Regarding `O=C(c1cccc(Cl)c1F)N1CCN(Cc2cccc(Nc3nccs3)n2)CC1` [PCM-0215281], the inhibition at 10 µM was determined as 68.3%.

On to `CC(C)(Sc1ccncc1-c1ccc(C#N)c2ccccc12)C(=O)O` [PCM-0216646], for which the inhibition at 10 µM was -27.8%. As to `COc1cc2c(cc1O)C[C@@H]1NCCc3cc(OC)c(O)c-2c31` [PCM-0216385], the inhibition at 10 µM came to 6.2%. For the molecule `NC(=O)c1cnccn1` [PCM-0065550], the inhibition at 10 µM worked out at 5.4%. Same read-out and setting: with `CC#Cc1cncc(-c2ccc3c(c2)[C@@]2(N=C(C)C(N)=N2)C2(CCC(OC)CC2)C3)c1` (some centres unmarked) [PCM-0215755] the figure was 0%. On the same count and under the same terms, with `COc1ccc(S(=O)(=O)Nc2cc(-c3c(O)ccc4ccccc34)c(O)c3ccccc23)cc1` [PCM-0215905] the figure was 86.5%; with `O=C(CBr)c1ccc(O)cc1` [PCM-0214871], -28.8%; with `C#CCC(Cc1cnc2nc(N)nc(N)c2n1)c1ccc(C(=O)N[C@@H](CCC(=O)O)C(=O)O)cc1` (some centres unmarked) [PCM-0095176], 1.6%. The same measure, in the same setting: with `O=C(C1CCCCC1)N1CC(=O)N2CCc3ccccc3C2C1` (centres unmarked) [PCM-0064807] the figure was -5.4%; with `CC(=O)O[C@H]1CC/C(C)=C/CC/C(C)=C/C[C@]2(C(C)C)CC[C@@]1(C)O2` [PCM-0216348], -10%. As to `O=C(Nc1cccc(Cl)c1)c1ccccn1` [PCM-0095506], the inhibition at 10 µM amounted to 5.4%. On to `COc1ccc(Cn2c3ncnc4c(ncn4Cc4ccc(OC)cc4)c-3nc2=O)cc1` [PCM-0215699], for which the inhibition at 10 µM came out at 7.7%.

In the case of `CN(C)CCCN1c2ccccc2Sc2ccc(Cl)cc21` [PCM-0064436], the inhibition at 10 µM is -16.3%. Turning to `COc1cccc(Nc2c(C(N)=O)cnc3c(C)cc(S(=O)(=O)c4cccc(C(=O)N(C)C)c4)cc23)c1` [PCM-0095466], the inhibition at 10 µM came to 0%. Still for that read-out and setting: the same measure for `CC(NC(C)(C)C)C(=O)c1cccc(Cl)c1` (centres unmarked) [PCM-0064429]: -3.9%. Turning to `CC1(C)C=C(CN2C/C(=C\c3ccc(F)cc3)C(=O)/C(=C/c3ccc(F)cc3)C2)C(C)(C)N1O` [PCM-0095780], the inhibition at 10 µM came out at 9.3%. The same measure, in the same setting: with `COc1cc2nc(N3CCN(C(=O)c4ccco4)CC3)nc(N)c2cc1OC` [PCM-0065512] the figure was -6%. Same read-out and setting: with `COc1cc(CO)ccc1O` [PCM-0215042] the figure was 0%; with `OC[C@H]1O[C@@H](c2ccc(Cl)c(Cc3ccc(O[C@H]4CCOC4)cc3)c2)[C@H](O)[C@@H](O)[C@@H]1O` [PCM-0095610], 12.4%. On the same count and under the same terms, with `O=c1cccc2n1C[C@@H]1CNC[C@H]2C1` [PCM-0094836] the figure was -10.1%; with `O=C[C@H](O)[C@@H](O)[C@H](O[C@H]1O[C@H](CO)[C@@H](O[C@H]2O[C@H](CO)[C@@H](O[C@H]3O[C@H](CO)[C@@H](O)[C@H](O)[C@H]3O)[C@H](O)[C@H]2O)[C@H](O)[C@H]1O)[C@H](O)CO` [PCM-0216456], 0.8%; with `Cc1nc(C(=O)NCC(=O)O)c(O)c2ccc(Oc3ccccc3)cc12` [PCM-0094891], -5.4%.

As to `Cc1ccc(C(=O)Nc2cccc(C(F)(F)F)c2)cc1Nc1nc(-c2cccnc2)nc2c1cnn2C` [PCM-0095241], the inhibition at 10 µM was 4.8%.

Turning to `COCCNC(=O)Nc1ccc2nc(-c3cccs3)c(-c3cccs3)nc2c1` [PCM-0215879], the inhibition at 10 µM was determined as 6.9%.

For `CN1C(=O)COc2c(C(=O)NC3CN4CCC3CC4)cc(Cl)cc21` (centres unmarked) [PCM-0095275], the inhibition at 10 µM is -7.7%. The same measure, in the same setting: with `CCCc1cc(C)[nH]c(=O)c1CNC(=O)c1cc(-c2ccc(N3CCN(C)CC3)nc2)nc2c1cnn2C(C)C` [PCM-0215988] the figure was 15.4%; with `CC(C)CCC[C@@H](C)[C@H]1CC[C@H]2C3=CC=C4C[C@@H](O)CC[C@]4(C)[C@H]3CC[C@]12C` [PCM-0216561], 18.5%; with `O=Cc1ccc(CO)o1` [PCM-0216119], -2.3%. Still for that read-out and setting: the same measure for `O=c1[nH]cnc2c1ncn2[C@@H]1O[C@H](CO)[C@@H](O)[C@H]1O` [PCM-0094864]: -3.1%; for `COc1cc2c(NC3CCN(C(C)C)CC3)nc(C3CCCCC3)nc2cc1OCCCN1CCCC1` [PCM-0215758]: -10.8%. Still for that read-out and setting: the same measure for `O=C(Nc1cccc(C(F)(F)F)c1)Nc1cc(S(=O)(=O)NC2CC2)ccc1-c1ccsc1` [PCM-0095800]: 27%.

For the molecule `CC(C)c1c(C(=O)Nc2ccccc2)c(-c2ccccc2)c(-c2ccc(F)cc2)n1CC[C@@H](O)C[C@@H](O)CC(=O)O` [PCM-0064680], the inhibition at 10 µM was 10.1%. On the same count and under the same terms, with `Cc1cc(C)c(CNC(=O)c2cc(-c3ccc(CN4CCOCC4)cc3)cc3c2cnn3C2CCCC2)c(=O)[nH]1` [PCM-0215223] the figure was -6.8%. The same measure, in the same setting: the same measure for `CC(C)C[C@@H](C=O)NC(=O)[C@H](CC(C)C)NC(=O)[C@H](CC(C)C)NC(=O)OCc1ccccc1` [PCM-0095809] (Cbz-Leu-Leu-Leu-aldehyde): 5.4%; for `NC[C@H]1O[C@H](O[C@H]2[C@H](O)[C@@H](O[C@H]3O[C@H](CO)[C@@H](O)[C@H](N)[C@H]3O)[C@H](N)C[C@@H]2N)[C@H](N)C[C@@H]1O` [PCM-0086125]: -14.5%. For the molecule `O=C(Nc1ccc(Br)cc1)c1c(O)cccc1O` [PCM-0215136], the inhibition at 10 µM was found to be 3.9%. The same measure, in the same setting: the same measure for `Nc1ccc(S(=O)(=O)Nc2ccccn2)cc1` [PCM-0086480]: -13.6%; for `O=C(O)Cn1nnc(-c2cc(N3CCC(Oc4cc(F)ccc4Br)CC3)no2)n1` [PCM-0094989]: 4.1%; for `NC12CC3CC(CC(C3)C1)C2` [PCM-0064405]: -14.8%. The same measure, in the same setting: the same measure for `CCCCC1OC(=O)c2ccccc21` (centres unmarked) [PCM-0216506]: 6.9%; for `COc1ccccc1OCC(O)CO` (centres unmarked) [PCM-0086515]: -2.3%; for `CC1CCc2c(N3CCC(O)CC3)c(F)cc3c(=O)c(C(=O)O)cn1c23` (centres unmarked) [PCM-0086338]: 1.6%. For the molecule `CC(C)NC[C@H](O)COc1ccc(CCOCC2CC2)cc1` [PCM-0214769], the inhibition at 10 µM stood at 0.8%.

For `COc1cc([C@@H]2c3cc4c(cc3[C@@H](O[C@@H]3O[C@@H]5CO[C@@H](C)O[C@H]5[C@H](O)[C@H]3O)[C@H]3COC(=O)[C@H]23)OCO4)cc(OC)c1O` [PCM-0086140], the inhibition at 10 µM is -2.8%.

For `CCn1c2ccccc2c2cc(Nc3ccnc(NCCCN4CCOCC4)n3)ccc21` [PCM-0215246], the inhibition at 10 µM was -6.9%. Still for that read-out and setting: the same measure for `COc1ccc(S(=O)(=O)N(CCO)c2ccccc2CN(C)C/C=C/c2ccc(Cl)cc2)cc1` [PCM-0215495]: 70.3%; for `NC(=O)c1ncn([C@@H]2O[C@H](CO)[C@@H](O)[C@H]2O)c1O` [PCM-0065422]: 0.9%. Still for that read-out and setting: the same measure for `CC(=O)N[C@H]1[C@H]([C@H](O)[C@H](O)CO)OC(C(=O)O)=C[C@@H]1N=C(N)N` [PCM-0095451]: -4.3%; for `Cc1cc(C)c(S(=O)(=O)n2cc(C)cc2C)c(C)c1` [PCM-0215336]: -13.1%; for `O=C1NC(=NCc2cccs2)S/C1=C\c1ccc2ncccc2c1` [PCM-0215455]: -9%. Turning to `COc1cc(C(=O)NC2CCCNC2)cc(OC)c1OC` (centres unmarked) [PCM-0214753], the inhibition at 10 µM was -3.1%. On the same count and under the same terms, with `CC[C@H]1OC(=O)[C@H](C)[C@@H](O[C@H]2C[C@@](C)(OC)[C@@H](O)[C@H](C)O2)[C@H](C)[C@@H](O[C@@H]2O[C@H](C)C[C@H](N(C)C)[C@H]2O)[C@](C)(O)C[C@@H](C)/C(=N\OCOCCOC)[C@H](C)[C@@H](O)[C@]1(C)O` [PCM-0214736] the figure was 3.9%; with `CC(C)(O[C@@H]1O[C@H](CO)[C@@H](O)[C@H](O)[C@H]1O)[C@H]1Cc2cc3ccc(=O)oc3cc2O1` [PCM-0216505], -1.5%; with `O=C(O)C(=O)c1cn(Cc2ccccc2)c2ccc(-c3ccc(OC(F)(F)F)cc3)cc12` [PCM-0215526], 34%.

On to `COc1cc2nc(N3CCN(C(=O)C4COc5ccccc5O4)CC3)nc(N)c2cc1OC` (centres unmarked) [PCM-0065300], for which the inhibition at 10 µM is -11.7%.

For the molecule `COC(=O)c1ccc2c(c1)nc(NC(=O)c1ccccc1)n2CCCc1ccccc1` [PCM-0215403], the inhibition at 10 µM stood at 0%. For the molecule `CN(CC(=O)N(Cc1ccc(C2CCCCC2)cc1)c1ccc(C(=O)NO)cc1)S(=O)(=O)c1c(F)c(F)c(F)c(F)c1F` [PCM-0215779], the inhibition at 10 µM was found to be 19.3%. Regarding `CC(=O)Nc1ccc(OC(=O)c2ccccc2OC(C)=O)cc1` [PCM-0216013], the inhibition at 10 µM is 2.1%.

In the case of `CC(=O)c1ccc(C)cc1O` [PCM-0215921], the inhibition at 10 µM is -6.9%. In the case of `CCCn1c(NC(=O)c2cccc(C(N)=O)c2)nc2ccccc21` [PCM-0215951], the inhibition at 10 µM was -12.4%. `NC(=O)c1ccc(N(C(N)=O)c2c(F)cccc2F)nc1-c1ccc(F)cc1F` [PCM-0095567]: the inhibition at 10 µM is -32.4%.

`CN1CC(O)c2cc(N=NC(N)=O)c(O)cc21` (centres unmarked) [PCM-0216016]: the inhibition at 10 µM amounted to 28.3%.

For the molecule `CN1CCN(c2ccc(-c3ccncc3-c3cc(F)c(O)c(F)c3)cc2)CC1` [PCM-0215608], the inhibition at 10 µM is 6.2%. On the same count and under the same terms, with `CCc1c(Cl)c(O)c(Cl)c(O)c1C(=O)O[C@H]1[C@H](O)[C@H](OC)[C@H](OC/C2=C\C=C\C[C@H](O)/C(C)=C/[C@H](CC)[C@@H](O[C@@H]3OC(C)(C)[C@@H](OC(=O)C(C)C)[C@H](O)[C@@H]3O)/C(C)=C/C(C)=C/C[C@@H]([C@@H](C)O)OC2=O)O[C@@H]1C` [PCM-0214774] the figure was 45.9%.
